This is an account of results in patent US20260258032A1, “TYROSINE KINASE 2 INHIBITORS AND USES THEREOF” (BIOGEN MA INC., priority 2022, published 2026).

The test system of test [1] is JAK2 kinase activity on STAT5. The test can be described thus: pSTAT5 cell assay (MSD, TF1 cells, IL-3 stimulated). In kind it is cell-based. Particulars: Homo sapiens, TF-1, compounds 1 hour, 30 ng/mL IL-3 for 15 minutes. On the procedure: Compounds of the disclosure were assessed for their ability to inhibit the JAK2 kinase activity on STAT5 utilizing an MSD-platform plate-based assay format. TF1 cells natively expressing STAT5 and JAK2 were serum-starved to reduce background phosphorylation levels, then cells were treated with compounds of disclosure for 1 hour with a 10-point four-fold dilution series starting at 10 μM. Cells were then stimulated with 30 ng/mL IL-3 for 15 minutes. Cells were then lysed and pSTAT5 levels were quantitated using an MSD plate-based assay with anti-STAT5 antibodies. The data were normalized and the percent activity versus log concentration of compound was fitted with a 4-parameter logistic model to generate a curve and an IC50 value.

The target of the next test is T1, JH2 domain of human Tyk2 (Homo sapiens, UniProt P29597).
T1 construct: 10×His-tagged TYK2 JH2 domain (amino acid 575-876)
Nature of the test: JH2 biochemical assay (TR-FRET probe displacement). It counts as binding. Put shortly: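 A probe-displacement TR-FRET readout: compounds, tested in 3-fold, 10-point dilutions starting at […], compete with 2 nM tracer for 2 nM His-tagged JH2 (residues 575-876) detected by 0.1 nM Tb-anti-His over 60 min. IC50 comes from 4-parameter fits of normalized 520/495 nm ratios.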
(In TR-FRET formats the signal depends on donor and acceptor labels being close together.)

Test [2] relates to Tyk2 kinase activity on STAT4. The test can be described thus: pSTAT4 cell assay (MSD, NK92 cells). It counts as cell-based. To be noted: compounds 1 hr. The procedure, abridged: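 Read-out: phospho-STAT in NK92 lysates, MSD format, anti-STAT4 antibodies. Cells were serum-starved, given compound for 1 hr (10 μM top, four-fold, 10 points) and IL2-stimulated (30 ng/mL, 15 min). Normalized percent activity vs log concentration, 4-parameter logistic fit gave IC50.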

In test [3] the test system is JAK1 kinase activity on STAT3. Nature of the test: pSTAT3 cell assay (MSD, TF1 cells, IL-6 stimulated). It counts as cell-based. Particulars: Homo sapiens, TF-1, compounds 1 hour, 30 ng/mL IL-6 for 15 minutes. As for the experimental part:
The inhibitory potency of compounds of the disclosure against the JAK1 kinase activity on STAT3 was evaluated using an MSD-platform plate-based assay format. TF1 cells natively expressing STAT3 and JAK1 were serum-starved to reduce background phosphorylation levels, then cells were treated with compounds of the disclosure for 1 hour with a 10-point four-fold dilution series starting at 10 μM. Cells were then stimulated with 30 ng/mL interleukin 6 (IL-6) for 15 minutes. Cells were lysed and pSTAT3 levels were quantitated using an MSD plate-based assay with anti-STAT3 antibodies. The data were normalized and the percent activity versus log concentration of compound was fitted with a 4-parameter logistic model to generate IC50 curves.

Setting [4] is: TR-FRET probe displacement, JH2 domain of human Tyk2.

Counter-ions that a name gives are not always drawn.

T1 sequence (P29597 575-876): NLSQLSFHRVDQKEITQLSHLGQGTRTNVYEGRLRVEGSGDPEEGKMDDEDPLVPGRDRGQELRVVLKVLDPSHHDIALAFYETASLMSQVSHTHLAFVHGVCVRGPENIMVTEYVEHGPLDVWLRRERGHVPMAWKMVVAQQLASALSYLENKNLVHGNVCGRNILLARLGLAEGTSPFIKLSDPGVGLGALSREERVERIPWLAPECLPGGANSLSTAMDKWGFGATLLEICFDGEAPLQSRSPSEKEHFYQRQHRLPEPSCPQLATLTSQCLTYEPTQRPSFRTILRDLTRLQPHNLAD

Take `COC1(c2cccc(N3CC4(CC4)c4cnc(NC(C)=O)cc43)n2)COC1` [Example 87, N-(1′-(6-(3-methoxyoxetan-3-yl)pyridin-2-yl)-1′,2′-dihydrospiro[cyclopropane-1,3′-pyrrolo[3,2-c]pyridin]-6′-yl)acetamide]: the IC50 in test [1] is no less than 1000 nM; at JH2 domain of human Tyk2 (JH2 biochemical assay), 10 to 100 nM; in test [2] (stimulated 15 minutes) it was no less than 1000 nM; in test [3], no less than 1000 nM.
Consider `CC(=O)Nc1cc2c(cn1)C1(CC1)CN2c1cc(C)nc(C(C)(F)F)n1` [Example 88, N-(1′-(2-(1,1-difluoroethyl)-6-methylpyrimidin-4-yl)-1′,2′-dihydrospiro[cyclopropane-1,3′-pyrrolo[3,2-c]pyridin]-6′-yl)acetamide], for which the IC50 in test [1] is no less than 1000 nM; on JH2 domain of human Tyk2 (JH2 biochemical assay), no more than 10 nM; in test [2] (stimulated 15 minutes), 10 to 100 nM; in test [3], no less than 1000 nM.
Consider `CCC(=O)Nc1cc2c(cn1)C1(CC1)CN2c1cccc(C(C)(F)F)n1` [Example 90, N-(1′-(6-(1,1-difluoroethyl)pyridin-2-yl)-1′,2′-dihydrospiro[cyclopropane-1,3′-pyrrolo[3,2-c]pyridin]-6′-yl)propionamide], for which the IC50 is no less than 1000 nM in test [1], no more than 10 nM at JH2 domain of human Tyk2 (JH2 biochemical assay), 10 to 100 nM in test [2] (stimulated 15 minutes) and no less than 1000 nM in test [3].
In the case of `CC(=O)Nc1cc2c(cn1)C1(CC1)CN2c1cc(-c2cnn(C)c2)nc(C(C)(F)F)n1` [Example 238, N-(1′-(2-(1,1-difluoroethyl)-6-(1-methyl-1H-pyrazol-4-yl)pyrimidin-4-yl)-1′,2′-dihydrospiro[cyclopropane-1,3′-pyrrolo[3,2-c]pyridin]-6′-yl)acetamide], the IC50 is no less than 1000 nM in test [1], no more than 10 nM at JH2 domain of human Tyk2 (JH2 biochemical assay), no more than 10 nM in test [2] (stimulated 15 minutes) and no less than 1000 nM in test [3].
Take `CC(=O)Nc1cc2c(cn1)C1(CCN(C)CC1)CN2c1nccc(C(C)(F)F)n1` [Example 274, N-(1′-(4-(1,1-difluoroethyl)pyrimidin-2-yl)-1-methyl-1′,2′-dihydrospiro[piperidine-4,3′-pyrrolo[3,2-c]pyridin]-6′-yl)acetamide trifluorocetate]: the IC50 in test [1] was no less than 1000 nM; at JH2 domain of human Tyk2 (JH2 biochemical assay) it was 100 to 1000 nM; in test [2] (stimulated 15 minutes), no less than 1000 nM; in test [3], no less than 1000 nM.
On to `CC(=O)Nc1cc2c(cn1)C1(CCN(C)CC1)CN2c1ccnc(C(C)(F)F)n1` [Example 275, N-(1′-(2-(1,1-difluoroethyl)pyrimidin-4-yl)-1-methyl-1′,2′-dihydrospiro[piperidine-4,3′-pyrrolo[3,2-c]pyridin]-6′-yl)acetamide trifluoroacetate], for which the 50% inhibitory concentration (IC50) (in test [1]; at JH2 domain of human Tyk2 (JH2 biochemical assay); in test [2] (stimulated 15 minutes); in test [3]) was no less than 1000 nM in each case.
As to `CNC(=O)Nc1cc2c(cn1)C1(CC1)CN2c1cc(C)nc(C(C)(F)F)n1` [Example 307, 1-(1′-(2-(1,1-difluoroethyl)-6-methylpyrimidin-4-yl)-1′,2′-dihydrospiro[cyclopropane-1,3′-pyrrolo[3,2-c]pyridin]-6′-yl)-3-methylurea], the IC50 in test [1] was no less than 1000 nM; on JH2 domain of human Tyk2 (JH2 biochemical assay), no more than 10 nM; in test [2] (stimulated 15 minutes) it was 10 to 100 nM; in test [3], no less than 1000 nM.
Regarding `Cc1cc(N2CC3(CC3)c3cnc(NC(N)=O)cc32)nc(C(C)(F)F)n1` [Example 308, 1-(1′-(2-(1,1-difluoroethyl)-6-methylpyrimidin-4-yl)-1′,2′-dihydrospiro[cyclopropane-1,3′-pyrrolo[3,2-c]pyridin]-6′-yl)urea], the IC50 in test [1] was no less than 1000 nM; on JH2 domain of human Tyk2 (JH2 biochemical assay), no more than 10 nM; in test [2] (stimulated 15 minutes), no more than 10 nM; in test [3], no less than 1000 nM.
As to `CCc1cc(N2CC3(CC3)c3cnc(NC(C)=O)cc32)nc(C23COC(C2)C3)n1` [Example 322, N-(1′-(2-(2-oxabicyclo[2.1.1]hexan-4-yl)-6-ethylpyrimidin-4-yl)-1′,2′-dihydrospiro[cyclopropane-1,3′-pyrrolo[3,2-c]pyridin]-6′-yl)acetamide], the IC50 in test [1] was no less than 1000 nM; at JH2 domain of human Tyk2 (JH2 biochemical assay), no more than 10 nM; in test [2] (stimulated 15 minutes), 10 to 100 nM; in test [3] it was no less than 1000 nM.
As to `CCn1cc(-c2cc(N3CC4(CC4)c4cnc(NC(C)=O)cc43)nc(C(C)(F)F)n2)cn1` [Example 384, N-(1′-(2-(1,1-difluoroethyl)-6-(1-ethyl-1H-pyrazol-4-yl)pyrimidin-4-yl)-1′,2′-dihydrospiro[cyclopropane-1,3′-pyrrolo[3,2-c]pyridin]-6′-yl)acetamide trifluoroacetate], the IC50 in test [1] is no less than 1000 nM; on JH2 domain of human Tyk2 (setting [4]) it was no more than 10 nM; in test [2] (then stimulated 15 minutes) it was 10 to 100 nM; in test [3], no less than 1000 nM.
On to `CC(=O)Nc1cc2c(cn1)C1(CC1)CN2c1cc(-c2cnn(C(C)C)c2)nc(C(C)(F)F)n1` [Example 386, N-(1′-(2-(1,1-difluoroethyl)-6-(1-isopropyl-1H-pyrazol-4-yl)pyrimidin-4-yl)-1′,2′-dihydrospiro[cyclopropane-1,3′-pyrrolo[3,2-c]pyridin]-6′-yl)acetamide trifluoroacetate], for which the IC50 in test [1] is no less than 1000 nM; at JH2 domain of human Tyk2 (setting [4]) it was no more than 10 nM; in test [2] (then stimulated 15 minutes), no more than 10 nM; in test [3], no less than 1000 nM.

One may read the IC50 as the concentration at which inhibition is half-maximal. Low readings indicate greater potency, high ones weaker potency.
